Reference: US10280150B2 (FORMA TM2, Inc., priority 2014, dated 2019)

Tests used:
[1] = target: IDH1-R132H recombinant protein (Homo sapiens (Human), UniProt O75874, R132H); test: IDH1-R132H enzymatic assay (inhibition of NADPH consumption, diaphorase/resazurin readout); assay type: biochemical; conditions: read-out: Enzyme IDH1 R132H IC50 (Range)
Procedure: (§1) Assays were performed in a 384-well black plate. An aliquot of 250 nL of compound was incubated with 10 μL of 30 nM IDH1-R132H or 10 nM IDH1-R132C recombinant protein in assay buffer (50 mM Tris pH=7.5, 150 mM NaCl, 5 mM MgCl2, 0.1% (w/v) Bovine Serum Albumin, and 0.01% Triton X-100) in each well at 25° C. for 15 minutes. After the plate was centrifuged briefly, an aliquot of 10 μL of 2 mM α-ketoglutarate and 20 μM NADPH solution prepared in assay buffer was then added to each well and the reaction was maintained at 25° C. for 45 minutes. An aliquot of 10 μL of diaphorase solution (0.15 U/mL diaphorase and 30 µM Resazurin in assay buffer) was added to each well. The plate was maintained at 25° C. for 15 minutes and then read on a plate reader with excitation and emission wavelengths at 535 nm and 590 nm, respectively. The IC50 of a given compound was calculated by fitting the dose response curve of inhibition of NADPH consumption at a given concentration with the four parameter logistic equation.

[2] = target: IDH1-R132C recombinant protein (Homo sapiens (Human), UniProt O75874, R132C); test: IDH1-R132C enzymatic assay (inhibition of NADPH consumption, diaphorase/resazurin readout); assay type: biochemical; conditions: read-out: Enzyme IDH1 R132C IC50 (Range)
Procedure: as §1

IDH1-R132H recombinant protein, sequence (O75874 whole entry R132H): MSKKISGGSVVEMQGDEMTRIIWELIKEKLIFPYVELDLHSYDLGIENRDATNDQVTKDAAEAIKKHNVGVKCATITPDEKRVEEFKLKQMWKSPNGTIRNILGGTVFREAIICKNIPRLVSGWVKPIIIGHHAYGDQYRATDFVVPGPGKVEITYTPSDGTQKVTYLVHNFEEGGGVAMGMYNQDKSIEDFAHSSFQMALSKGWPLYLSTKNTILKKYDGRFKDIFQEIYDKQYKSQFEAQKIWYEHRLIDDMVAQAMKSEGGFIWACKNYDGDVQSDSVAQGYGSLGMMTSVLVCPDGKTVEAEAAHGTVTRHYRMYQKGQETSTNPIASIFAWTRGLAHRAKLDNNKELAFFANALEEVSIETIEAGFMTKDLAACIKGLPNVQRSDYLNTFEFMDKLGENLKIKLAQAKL
IDH1-R132C recombinant protein, sequence (O75874 whole entry R132C): as the sequence (O75874 whole entry R132H) above, with H132C counted along it

| IC50 [1] [nM] | IC50 [2] [nM] | Compound |
| --- | --- | --- |
| < 100 | < 100 | C[C@H](Nc1nccc(N(CC2CC2)S(C)(=O)=O)n1)c1cc2cc(Cl)ccc2[nH]c1=O [Compound I-2, (S)—N-(2-((1-(6-Chloro-2-oxo-1,2-dihydroquinolin-3-yl)ethyl)amino)pyrimidin-4-yl)-N-(cyclopropylmethyl)methanesulfonamide] |
| 100 to 1000 | 100 to 1000 | C[C@H](Nc1nccc(N(C2CCCOC2)S(C)(=O)=O)n1)c1cc2cc(Cl)ccc2[nH]c1=O (stereo partly drawn) [Compound I-3, N-(2-(((S)-1-(6-chloro-2-oxo-1,2-dihydroquinolin-3-yl)ethyl)amino)pyrimidin-4-yl)-N-(tetrahydro-2H-pyran-3-yl)methanesulfonamide] |
| < 100 | < 100 | CC(C)N(c1ccnc(N[C@@H](C)c2cc3cc(Cl)ccc3[nH]c2=O)n1)S(=O)(=O)c1cccnc1 [Compound I-4, (S)—N-(2-((1-(6-Chloro-2-oxo-1,2-dihydroquinolin-3-yl)ethyl)amino)pyrimidin-4-yl)-N-isopropylpyridine-3-sulfonamide] |
| < 100 | 100 to 1000 | CC(C)CS(=O)(=O)N(c1ccnc(N[C@@H](C)c2cc3cc(Cl)ccc3[nH]c2=O)n1)C(C)C [Compound I-5, (S)—N-(2-(1-(6-Chloro-2-oxo-1,2-dihydroquinolin-3-yl)ethylamino)pyrimidin-4-yl)-N-isopropyl-2-methylpropane-1-sulfonamide] |
| 100 to 1000 | 1000 to 10000 | C[C@H](Nc1nccc(NC(C)(C)C)n1)c1cc2cc(Cl)ccc2[nH]c1=O [Compound I-7] |
| < 100 | < 100 | CC(C)CN(c1ccnc(N[C@@H](C)c2cc3cc(Cl)ccc3[nH]c2=O)n1)S(C)(=O)=O [Compound I-8, (S)—N-(2-(1-(6-Chloro-2-oxo-1,2-dihydroquinolin-3-yl)ethylamino)pyrimidin-4-yl)-N-isobutylmethanesulfonamide] |
| < 100 | 100 to 1000 | CC(C)N(c1ccnc(N[C@@H](C)c2cc3cc(Cl)ccc3[nH]c2=O)n1)S(C)(=O)=O [Compound I-10, (S)—N-(2-(1-(6-Chloro-2-oxo-1,2-dihydroquinolin-3-yl)ethylamino)pyrimidin-4-yl)-N-isopropylmethanesulfonamide] |
| < 100 | < 100 | CC(C)N(c1ccnc(N[C@@H](C)c2cc3cc(Cl)ccc3[nH]c2=O)n1)S(=O)(=O)CC1CC1 [Compound I-11, (S)—N-(2-((1-(6-Chloro-2-oxo-1,2-dihydroquinolin-3-yl)ethyl)amino)pyrimidin-4-yl)-1-cyclopropyl-N-isopropylmethanesulfonamide] |
| 100 to 1000 | 1000 to 10000 | C[C@H](Nc1nccc(N(C2CC2)S(C)(=O)=O)n1)c1cc2cc(Cl)ccc2[nH]c1=O [Compound I-14] |
| 100 to 1000 | 100 to 1000 | CC(C)CS(=O)(=O)N(C)c1ccnc(N[C@@H](C)c2cc3cc(Cl)ccc3[nH]c2=O)n1 [Compound I-15] |
| 100 to 1000 | 1000 to 10000 | C[C@H](Nc1nccc(N(CCC2CCOCC2)S(C)(=O)=O)n1)c1cc2cc(Cl)ccc2[nH]c1=O [Compound I-16] |
| 100 to 1000 | 1000 to 10000 | CC(C)N(c1ccnc(N[C@@H](C)c2cc3cc(Cl)ccc3[nH]c2=O)n1)S(=O)(=O)c1ccc2c(c1)oc(=O)n2C [Compound I-21] |
| 100 to 1000 | 1000 to 10000 | CC(C)CN(C(=O)C1CC1)c1ccnc(N[C@@H](C)c2cc3cc(Cl)ccc3[nH]c2=O)n1 [Compound I-35] |
| 1000 to 10000 | 1000 to 10000 | C[C@@H](Nc1nccc(N2CCOC2=O)n1)c1cc2cc(Cl)ccc2[nH]c1=O [Compound I-45] |
| < 100 | < 100 | CC(C)[C@H]1COC(=O)N1c1ccnc(NCc2cc3cc(Cl)ccc3[nH]c2=O)n1 [Compound I-46, (S)-3-(2-(((6-Chloro-2-oxo-1,2-dihydroquinolin-3-yl)methyl)amino)pyrimidin-4-yl)-4-isopropyloxazolidin-2-one] |
| < 100 | 100 to 1000 | CC(Nc1nccc(N2CCOC2=O)n1)c1cc2cc(Cl)ccc2[nH]c1=O (stereo not shown) [Compound I-48] |
| 1000 to 10000 | > 10000 | Cc1nn(C)c(C)c1-c1ccnc(N[C@@H](C)c2cc3cc(Cl)ccc3[nH]c2=O)n1 [Compound I-84] |
| 1000 to 10000 | > 10000 | C[C@H](Nc1nccc(-c2c[nH]nc2C(F)(F)F)n1)c1cc2cc(Cl)ccc2[nH]c1=O [Compound I-86] |
| 1000 to 10000 | 1000 to 10000 | C[C@H](Nc1nccc(-c2coc3ccccc23)n1)c1cc2cc(Cl)ccc2[nH]c1=O [Compound I-89] |
| 100 to 1000 | 1000 to 10000 | C[C@H](Nc1nccc(-c2cnn(C)c2)n1)c1cc2cc(Cl)ccc2[nH]c1=O [Compound I-91] |

| IC50 [1] [nM] | IC50 [2] [nM] | Compound |
| --- | --- | --- |
| 1000 to 10000 | > 10000 | COc1ncccc1-c1ccnc(N[C@@H](C)c2cc3cc(Cl)ccc3[nH]c2=O)n1 [Compound I-93] |
| 1000 to 10000 | 1000 to 10000 | COc1cnccc1-c1ccnc(N[C@@H](C)c2cc3cc(Cl)ccc3[nH]c2=O)n1 [Compound I-97] |
| > 10000 | > 10000 | C[C@H](Nc1nccc(-c2cccc3c2OCC3)n1)c1cc2cc(Cl)ccc2[nH]c1=O [Compound I-98] |
| 100 to 1000 | 100 to 1000 | COc1ccncc1-c1ccnc(N[C@@H](C)c2cc3cc(Cl)ccc3[nH]c2=O)n1 [Compound I-99] |
| 100 to 1000 | 1000 to 10000 | COCc1ccccc1-c1ccnc(N[C@@H](C)c2cc3cc(Cl)ccc3[nH]c2=O)n1 [Compound I-100] |
| 1000 to 10000 | 1000 to 10000 | COc1ccccc1-c1ccnc(N[C@@H](C)c2cc3cc(Cl)ccc3[nH]c2=O)n1 [Compound I-102] |
| < 100 | 100 to 1000 | C[C@H](Nc1nccc([S+](C)[O-])n1)c1cc2cc(Cl)ccc2[nH]c1=O (stereo partly shown) [Compound I-111] |
| 100 to 1000 | 1000 to 10000 | CC(C)NC(=O)c1ccnc(N[C@@H](C)c2cc3cc(Cl)ccc3[nH]c2=O)n1 [Compound I-117] |
| 100 to 1000 | 100 to 1000 | CC(C)CS(=O)(=O)Cc1ccnc(N[C@@H](C)c2cc3cc(Cl)ccc3[nH]c2=O)n1 [Compound I-121, (S)-6-Chloro-3-(1-(4-(isobutylsulfonylmethyl)pyrimidin-2-ylamino)ethyl)quinolin-2(1H)-one] |
| 100 to 1000 | 1000 to 10000 | C[C@H](Nc1nccc(CS(C)(=O)=O)n1)c1cc2cc(Cl)ccc2[nH]c1=O [Compound I-133] |
| 100 to 1000 |  | C[C@H](Nc1nccc(C2(S(C)(=O)=O)CC2)n1)c1cc2cc(Cl)ccc2[nH]c1=O [Compound I-136, (S)-6-Chloro-3-(1-(4-(1-(methylsulfonyl)cyclopropyl)pyrimidin-2-ylamino)ethyl)quinolin-2(1H)-one] |
| 1000 to 10000 |  | CC(=O)N(Cc1ccnc(N[C@@H](C)c2cc3cc(Cl)ccc3[nH]c2=O)n1)C1CC1 [Compound I-137, (S)—N-((2-((1-(6-chloro-2-oxo-1,2-dihydroquinolin-3-yl)ethyl)amino)pyrimidin-4-yl)methyl)-N-cyclopropylacetamide] |
| 1000 to 10000 |  | C[C@H](Nc1nccc(N)n1)c1cc2cc(Cl)ccc2[nH]c1=O [Compound I-139] |
| > 10000 |  | C[C@@H](Nc1nccc(N2CCCOC2=O)n1)c1cc2cc(Cl)ccc2[nH]c1=O [Compound I-140] |
| > 10000 |  | COc1cc2[nH]c(=O)c([C@@H](C)Nc3nccc(N4CCOC4=O)n3)cc2cc1Cl [Compound I-148] |
| > 10000 |  | CC(C)N(c1ccnc(NCc2cc3ccccc3[nH]c2=O)n1)S(C)(=O)=O [Compound I-164, N-isopropyl-N-(2-(((2-oxo-1,2-dihydroquinolin-3-yl)methyl)amino)pyrimidin-4-yl)methanesulfonamide] |
| 1000 to 10000 |  | CC(C)N(c1ccnc(NCc2cc3ccc(F)cc3[nH]c2=O)n1)S(C)(=O)=O [Compound I-165] |
| 1000 to 10000 |  | Cc1ccc2[nH]c(=O)c(CNc3nccc(N(C(C)C)S(C)(=O)=O)n3)cc2c1 [Compound I-166] |
| > 10000 |  | O=C1OCCN1c1ccnc(NC(CF)c2cc3cc(Cl)ccc3[nH]c2=O)n1 (stereo not shown) [Compound I-171] |

| Compound | IC50 [1] [nM] | IC50 [2] [nM] |
| --- | --- | --- |
| COc1nc(N[C@@H](C)c2cc3cc(Cl)ccc3n(C)c2=O)ncc1C#N [Compound I-41, (S)-2-((1-(6-chloro-1-methyl-2-oxo-1,2-dihydroquinolin-3-yl)ethyl)amino)-4-methoxypyrimidine-5-carbonitrile] | 1000 to 10000 | 1000 to 10000 |
| CC(C)[C@H]1COCCN1c1ccnc(N[C@@H](C)c2cc3cc(Cl)ccc3[nH]c2=O)n1 [Compound I-104, 6-chloro-3-((S)-1-(4-((S)-3-isopropylmorpholino)pyrimidin-2-ylamino)ethyl) quinolin-2(1H)-one] | 100 to 1000 | 1000 to 10000 |
| CC(c1ccnc(N[C@@H](C)c2cc3cc(Cl)ccc3[nH]c2=O)n1)S(C)(=O)=O (stereo partly drawn) [Compound I-135, 6-Chloro-3-((1S)-1-((4-(1-(methylsulfonyl)ethyl)pyrimidin-2-yl)amino)ethyl) quinolin-2(1H)-one] | 1000 to 10000 | > 10000 |
| COc1cc(OC)nc(NCc2cc3cc(Cl)ccc3[nH]c2=O)n1 [Compound I-163, 6-Chloro-3-(((4,6-dimethoxypyrimidin-2-yl)amino)methyl)quinolin-2(1H)-one] | 1000 to 10000 |  |
